Test results as given in patent US7824691B2 (priority 2005, dated 2010).
Ends that are not written are not given here.

Legend:
S. aureus ATCC 25923 = assay: Murine sepsis model 1, live S. aureus i.v. challenge (lethality, bacteremia); assay type: in vivo, BALB/c male mice; conditions: for Lethality (%) / Lethality (dead/total): monitored 72 h; for Quantitative Blood Culture (CFU/ml), mean ± S.D. / Qualitative Blood Culture (positive/total): blood 24 h after challenge
Description: Animals: BALB/c male mice weighing 23 to 30 g were used for all the experiments. All animals were housed in individual cages under constant temperature (22° C.) and humidity with a 12 hour light/dark cycle and had access to food and water ad libitum throughout the study. The study was approved by the animal research ethics committee of the I.N.R.C.A.-I.R.R.C.S., Polytechnic University of Marche, Ancona, Italy.
Preparation of the inoculum: S. aureus ATCC 25923 were grown overnight at 37° C. in brain-heart infusion broth. When bacteria were in the log phase of growth the suspension was centrifuged at 1000× g for 15 min, the supernatant was discarded, and the bacteria were resuspended in sterile saline to achieve a concentration of approximately 1×10^7 CFU/mL.
(§1) Implantation of inoculum: All animals were anesthetized by an intramuscular injection of ketamine (30 mg/kg of body weight). Mice were injected intravenously (i.v.) via the tail vein with 0.2 mL of the above mentioned bacterial suspensions: (i) 2.0×10^6 CFU of S. aureus ATCC 25923 (model 1), or (ii) 5.0×10^8 heat-killed cells (model 2) on day 0 and monitored for 72 hours.
(§2) Antibiotic therapy. […] Each group included 20 mice. The animals were returned to individual cages and monitored for the subsequent 72 hours. The endpoints of the study were lethality rates (model 1), quantitative blood cultures (bacteremia, model 1), and TNF-α or IL-6 plasma levels (model 2).
Evaluation of treatment: Blood samples for culture were obtained from the tail vein by aseptic percutaneous puncture 24 h after bacterial challenge. The animals that died before this time were not tested. To perform quantitative bacterial cultures, blood samples were serially diluted, a 0.1 mL volume of each dilution was spread on blood agar plates and cultured at 35° C. for 48 h, and colony forming units (CFU) were counted. The limit of detection was <10 CFU/mL.
Statistical analysis: Lethality rates between groups were compared by use of Fisher's exact test. Data from quantitative blood cultures were presented as means±standard deviations (SDs) of the mean; statistical comparisons between groups were made by analysis of variance. Post hoc comparisons were performed by Bonferroni's test. Plasma IL-6 and TNF-α mean values were compared between groups by analysis of variance. Significance was accepted when the p value was <0.05.

[1] = Toxicity in supplementary treated groups without challenge; assay type: in vivo, BALB/c male mice; conditions: supplementary treated groups without previous infection
TNF-α plasma levels = assay: Murine sepsis model 2, heat-killed S. aureus challenge, plasma TNF-α; assay type: in vivo, BALB/c male mice
Description: (§3) Heat-killed S. aureus were prepared by boiling for 10 min and sonicating a bacterial suspension for 1 min in phosphate buffered saline containing approximately 2.5×10^9 cells/mL.
as §1, §2
(§4) Plasma TNF-α and IL-6 levels. […] TNF-α levels were measured with a solid phase sandwich enzyme-linked immunosorbent assay (ELISA). The intensity of the color was measured in a MR 700 Microplate Reader (Dynatech Laboratories, Guernsey, United Kingdom) by reading the absorbance at 450 nm. […] The plasma concentrations of IL-6 were also determined by ELISA, as described above. Quantification was performed on the basis of a standard curve. […]

IL-6 plasma levels = assay: Murine sepsis model 2, heat-killed S. aureus challenge, plasma IL-6; assay type: in vivo, BALB/c male mice
Description: as §3, §1, §2, §4

RAW264.7 cells [2] = assay: LTA-induced TNF-α production by RAW264.7 cells (ELISA); assay type: cell-based, murine; conditions: 20 μg/mL inactive RIP peptide analogue; data not shown
Description: (§5) Cytokine production by RAW 264.7 cells: The murine macrophage cell line RAW264.7 was obtained from American Type Culture Collection (ATCC) and maintained in RPMI supplemented with 10% fetal calf serum (FCS), 2 mM L-glutamine, 100 units/mL penicillin and 100 μg/mL streptomycin in a humidified 37° C. incubator. RAW264.7 cells were plated in 24-well dishes at 10^6 cells/well in the above medium and incubated at 37° C. in 5% CO2 overnight. RPMI was aspirated from cells grown overnight and replaced with fresh medium. […] Peptides were added simultaneously with LTA. After 24 hours incubation, the supernatants were removed and tested for TNF-α production by enzyme linked immunosorbent assay (ELISA; Euroclone Life Sciences, Milan, Italy) according to the manufacturer's specification. All samples were run in duplicate. The detection limit for TNF-α was <0.025 ng/mL.

RAW264.7 cells [3] = assay: LTA-stimulated NO production by RAW264.7 cells (Griess reagent); assay type: cell-based, murine; conditions: 20 μg/mL inactive RIP peptide analogue; data not shown
Description: as §5
Nitric oxide (NO) detection: RAW264.7 cells were cultured as described above. The amount of LTA-stimulated production of NO in the supernatant over 24 hours was estimated from the accumulation of the stable NO metabolite nitrite with Griess reagent (Molecular Probes, Eugene, Oreg.) according to the manufacturer's instructions.

[4] = model 1a: i.v. treatment immediately after challenge
[5] = model 1a: treatment immediately after challenge
[6] = model 1b: i.v. treatment 6 h (360 min) after challenge
[7] = model 1b: treatment 6 h after challenge

Compound | Lethality (%) (S. aureus ATCC 25923; [4]) | Quantitative Blood Culture (CFU/ml), mean ± S.D. (S. aureus ATCC 25923; [5]) | Lethality (%) (S. aureus ATCC 25923; [6]) | Quantitative Blood Culture (CFU/ml), mean ± S.D. (S. aureus ATCC 25923; [7]) | changes in physiological parameters [1] | drug-related adverse effects [1] | further results
C[C@@H](O)[C@H]1C(=O)N2C(C(=O)O)=C(SCCN=CN)C[C@H]12 [imipenem] | 30 | 5.8 ± 1.4 × 10^2de CFU/ml | 35 | 7.1 ± 1.7 × 10^2de CFU/ml | – | – | –
YSPWTNF-NH2 [RIP, YSPWTNF-NH2] | – | – | – | – | no changes in physiological parameters | none of the animals had clinical evidence of drug-related adverse effects | –
CN[C@H](CC(C)C)C(=O)N[C@H]1C(=O)N[C@@H](CC(N)=O)C(=O)N[C@H]2C(=O)N[C@H]3C(=O)N[C@H](C(=O)N[C@H](C(=O)O)c4cc(O)cc(O)c4-c4cc3ccc4O)[C@H](O)c3ccc(c(Cl)c3)Oc3cc2cc(c3O[C@@H]2O[C@H](CO)[C@@H](O)[C@H](O)[C@H]2O[C@H]2C[C@](C)(N)[C@H](O)[C@H](C)O2)Oc2ccc(cc2Cl)[C@H]1O [vancomycin] | 20 | 7.8±1.8×10^1 CFU/ml | 20 | 9.0 ± 2.8 × 10^1deg CFU/ml | – | – | TNF-α plasma levels (TNF-α plasma levels; model 2a: drugs at 0 min after heat-killed cell challenge, FIG. 3A): No substantial differences; plasma TNF-α concentrations (TNF-α plasma levels; model 2b: drugs 360 min after heat-killed bacterial challenge, FIG. 3B): constant increase; IL-6 plasma levels (IL-6 plasma levels; model 2a: drugs at 0 min after heat-killed cell challenge, FIG. 4A): No substantial differences; plasma IL-6 concentrations (IL-6 plasma levels; model 2b: drugs 360 min after heat-killed bacterial challenge, FIG. 4B): constant increase; Lethality (dead/total) (S. aureus ATCC 25923; [4]): 4/20; Qualitative Blood Culture (positive/total) (S. aureus ATCC 25923; [5]): 5/20^df; Quantitative Blood Culture (CFU/ml), mean ± S.D. (S. aureus ATCC 25923; model 1a: treatment immediately after challenge, listed as VAN): 7.8 ± 1.8 × 10^1deg CFU/ml; Lethality (dead/total) (S. aureus ATCC 25923; [6]): 4/20; Qualitative Blood Culture (positive/total) (S. aureus ATCC 25923; [7]): 5/20^df
GGLRSLGRKILRAWKKYGPIIVPIIRI-NH2 [BMAP-28] | – | – | – | – | no changes in physiological parameters | none of the animals had clinical evidence of drug-related adverse effects | –
YKPETNF-NH2 [inactive RIP peptide analogue] | – | – | – | – | – | – | decrease of LTA-induced TNF-α (RAW264.7 cells [2]): did not demonstrate decrease; decrease of LTA-stimulated NO (RAW264.7 cells [3]): did not demonstrate decrease
